The target of assay [1] is T1, AR in LNCaP cytosol (Homo sapiens, UniProt P10275, T878A).
T1 construct: endogenous in cells; host or cells: LNCaP cytosol
T1 sequence (P10275 1-920 T878A): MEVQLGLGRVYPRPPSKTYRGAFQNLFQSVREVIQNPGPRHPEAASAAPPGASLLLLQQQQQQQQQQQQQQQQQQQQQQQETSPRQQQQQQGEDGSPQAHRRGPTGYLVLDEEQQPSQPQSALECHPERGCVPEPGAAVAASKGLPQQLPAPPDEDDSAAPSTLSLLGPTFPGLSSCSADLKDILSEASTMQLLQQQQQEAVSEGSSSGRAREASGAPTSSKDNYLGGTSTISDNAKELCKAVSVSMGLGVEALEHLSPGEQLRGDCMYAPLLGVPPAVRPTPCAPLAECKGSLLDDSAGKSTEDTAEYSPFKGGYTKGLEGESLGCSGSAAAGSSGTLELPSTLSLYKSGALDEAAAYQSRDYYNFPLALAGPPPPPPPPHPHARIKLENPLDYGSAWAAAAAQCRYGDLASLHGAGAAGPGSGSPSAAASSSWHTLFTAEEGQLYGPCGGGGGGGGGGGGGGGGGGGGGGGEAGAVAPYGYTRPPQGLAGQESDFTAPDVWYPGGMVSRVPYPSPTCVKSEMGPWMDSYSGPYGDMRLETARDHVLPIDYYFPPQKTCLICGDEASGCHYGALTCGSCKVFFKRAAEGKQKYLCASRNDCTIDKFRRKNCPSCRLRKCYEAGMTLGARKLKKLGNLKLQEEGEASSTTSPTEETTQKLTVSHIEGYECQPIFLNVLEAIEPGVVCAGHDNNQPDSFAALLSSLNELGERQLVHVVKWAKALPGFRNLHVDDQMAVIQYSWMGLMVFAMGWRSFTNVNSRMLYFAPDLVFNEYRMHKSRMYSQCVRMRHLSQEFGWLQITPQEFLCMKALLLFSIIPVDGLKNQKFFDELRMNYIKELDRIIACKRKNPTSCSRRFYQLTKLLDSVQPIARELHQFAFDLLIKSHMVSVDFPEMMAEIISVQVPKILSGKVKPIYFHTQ
Kind of assay: AR binding assay (3H-methyltrienolone displacement). The method, then:
(§1) The following methods are for evaluating the in vitro biology properties of the test articles. • a. RBC HotSpot Poly(ADP-ribose) Polymerases 1 (PARP1) and Poly(ADP-ribose) Polymerases 2 (PARP2) Assays: The assay principle is radioisotope-based filter binding assay where incorporation of radioisotope-labeled NAD^+ into the substrate captured on filter is detected after washout free NAD^+. Data were analyzed using Excel and GraphPad Prism software for IC50 curve fits. Each assay was conducted with PJ34 as a positive control. • i. PARP1 assay: Human recombinant PARP1 at a final concentration of 2.5 nM was combined with histone H4 (20 μM) and test articles at various concentrations in reaction buffer (50 mM Tris-HCL, pH 8.0, 50 mM NaCl, 10 mM MgCl2, 1 mM DTT, 1% DMSO, and 20 μg/mL activated DNA). The solution was inoculated for 20 min at room temperature and the reaction initiated by adding [adenylate-^32P]-Nicotinamide Adenine Dinucleotide, ^32P-NAD^+ at a final concentration of 10 μM. After incubation for 2 hour at room temperature, the reaction mixture was filtered and washed with 0.75% phosphoric acid for radioactivity detection. • ii. PARP2 assay: Human recombinant PARP2 at a final concentration of 2.5 nM was combined with histone H3 (20 μM) and test articles at various concentrations in reaction buffer (50 mM Tris-HCL, pH 8.0, 50 mM NaCl, 10 mM MgCl2, 1 mM DTT, 1% DMSO, and 20 μg/mL activated DNA). The solution was inoculated for 20 min at room temperature and the reaction was initiated by adding [adenylate-^32P]-Nicotinamide Adenine Dinucleotide, ^32P-NAD^+ at a final concentration of 10 μM. After incubation for 2 hour at room temperature, the reaction mixture was filtered and washed with 0.75% phosphoric acid for radioactivity detection. • b. AR binding assay: AR in LNCaP cytosol was used for determining the binding affinity of test articles and the reference compound—progesterone (Sigma, Cat: E2785, St. Louis, MO). IC50s were determined using 8 concentrations/compound. Cytosol was plated at 200 μg/well (100 μL) into a 96-well conical polypropylene plate (Agilent, Cat: 5042-1385, Santa Clara, CA) and mixed with 3 μL of test compound. After adding 100 μL of ^3H-methyltrienolone (PerkinElmer, Cat: NET590250UC, San Jose, CA), the plate was sealed and shaken at 300 rpm at 4° C. for 24 hours. Post incubation, 100 μL of radioligand adsorption buffer containing 10 mM Tris-HCl, pH 7.4; 1.5 mM EDTA; 1 mM DTT; 0.25% charcoal; 0.0025% dextran was added to individual well. Plate was shaken for 15 min at 4′C followed by centrifugation at 3000 rpm for 30 min at 4° C. 150 μL of supernatant was transferred into scint-tube (PerkinElmer, Cat: 6000192) and mixed with 2 mL of Ultima Gold Cocktail (PerkinElmer, Cat: 6013329). Radioactivity was counted using a TriCarb 2910 TR scintillation counter (PerkinElmer). Inhibition of the radioactivity by test articles were calculated using the equation below: % Inhibition=(1−(Assay well−Average_LC)/(Average_HC−Average_LC))×100%.
IC50 values were calculated and graphed using the model “log(inhibitor) vs. response—Variable slope” included in GraphPad Prism 5 (San Diego, CA). The Ki values were further calculated using the equation below where [L] was the radioligand concentration (1 nM) using in this study. Kd value was 0.332 nM. Ki=IC50/(1+[L]/Kd) c. AR transactivation: Human AR cloned into a CMV vector backbone was used for the transactivation study. HEK-293 cells were plated at 80,000 cells per well of a 24 well plate in DME+5% csFBS. Twenty four hours later, the cells were transfected using Lipofectamine (Invitrogen, Carlsbad, CA) with 0.25 μg GRE-LUC, 0.01 μg CMV-LUC (renilla luciferase) and 25 ng of the AR in OPTIMEM medium. The cells were treated 24 hrs after transfection with various ligands (10^−12 to 10^−5 M final concentrations) and luciferase assay were performed 48 hours after transfection. […]

In assay [2] the target is Human recombinant PARP1 (Homo sapiens, UniProt P09874). Kind of assay: RBC HotSpot PARP1 radioisotope-based filter binding assay. It counts as biochemical. The method, then: as §1
Setting [3] is: 2.5 nM enzyme, histone H4, 10 μM 32P-NAD+, read-out: PARP1 IC50.

Where two headings read alike, the source gives them in different places.

In general, Ki refers to the equilibrium dissociation constant of an inhibitor or competing ligand from its target. Read a high Ki as a looser hold on the target. The term IC50 denotes the concentration needed to halve the response being measured.

Human recombinant PARP1, sequence (P09874 whole entry): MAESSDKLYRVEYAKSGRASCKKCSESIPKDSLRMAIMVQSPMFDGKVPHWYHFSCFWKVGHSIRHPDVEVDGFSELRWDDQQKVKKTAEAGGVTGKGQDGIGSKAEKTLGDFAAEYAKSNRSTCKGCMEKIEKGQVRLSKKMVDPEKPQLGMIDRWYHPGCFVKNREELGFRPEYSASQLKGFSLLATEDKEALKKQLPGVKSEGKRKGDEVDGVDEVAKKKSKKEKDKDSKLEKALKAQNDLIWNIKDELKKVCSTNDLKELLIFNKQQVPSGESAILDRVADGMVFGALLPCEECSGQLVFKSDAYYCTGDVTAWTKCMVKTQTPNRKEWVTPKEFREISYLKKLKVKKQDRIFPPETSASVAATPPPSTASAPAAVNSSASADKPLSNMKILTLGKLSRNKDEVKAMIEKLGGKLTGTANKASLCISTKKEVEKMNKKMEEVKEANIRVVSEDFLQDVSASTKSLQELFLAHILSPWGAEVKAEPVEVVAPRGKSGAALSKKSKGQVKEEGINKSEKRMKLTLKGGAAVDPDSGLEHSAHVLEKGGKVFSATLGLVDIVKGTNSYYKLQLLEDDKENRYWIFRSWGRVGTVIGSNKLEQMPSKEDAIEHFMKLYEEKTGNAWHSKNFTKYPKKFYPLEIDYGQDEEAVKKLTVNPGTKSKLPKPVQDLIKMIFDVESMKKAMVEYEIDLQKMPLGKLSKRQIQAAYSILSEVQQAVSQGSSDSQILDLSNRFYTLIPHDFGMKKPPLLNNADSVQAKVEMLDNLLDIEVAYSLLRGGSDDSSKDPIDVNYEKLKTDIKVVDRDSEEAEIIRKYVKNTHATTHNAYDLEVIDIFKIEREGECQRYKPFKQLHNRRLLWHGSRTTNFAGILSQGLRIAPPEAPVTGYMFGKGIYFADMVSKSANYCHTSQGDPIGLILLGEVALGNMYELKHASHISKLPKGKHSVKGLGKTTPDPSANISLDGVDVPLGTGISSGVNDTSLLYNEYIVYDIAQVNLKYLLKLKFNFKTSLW

For the molecule `CC(O)(CS(=O)(=O)c1ccc(NCCn2cc(CN3CCN(C(=O)c4cc(Cc5n[nH]c(=O)c6ccccc56)ccc4F)CC3)nn2)cc1)C(=O)Nc1ccc(C#N)c(C(F)(F)F)c1` (stereo in doubt) [Compound 1.97, (S)-N-(4-cyano-3-(trifluoromethyl)phenyl)-3-(4-(2-(4-((4-(2-fluoro-5-((4-oxo-3,4-dihydrophthalazin-1-yl)methyl)benzoyl)piperazin-1-yl)methyl)-1H-1,2,3-triazol-1-yl)ethylamino)phenylsulfonyl)-2-hydroxy-2-methylpropanamide], affinity in assay [1] was put at a Ki of 504 nM. The IC50 in assay [2] is 2 nM.

Take `C[C@]12CCC(=O)C[C@@H]1CC[C@@H]1[C@@H]2CC[C@@]2(C)[C@H]1CC[C@@]2(O)CCC(=O)N1CCN(C(=O)c2cc(Cc3n[nH]c(=O)c4ccccc34)ccc2F)CC1` (stereo in doubt) [Compound 1.117, 4-(4-fluoro-3-(4-(3-((5S,8R,9S,10S,13S,14S,17R)-17-hydroxy-10,13-dimethyl-3-oxohexadecahydro-1H-cyclopenta[a]phenanthren-17-yl)propanoyl)piperazine-1-carbonyl)benzyl)phthalazin-1(2H)-one]: the affinity in assay [1], expressed as Ki, was 60 nM. For the same molecule, the IC50 in assay [2] (setting [3]) worked out at 0.3 nM.

As for `CC1(C)C(=O)N(c2ccc(C#N)c(C(F)(F)F)c2)C(=S)N1c1ccc(C(=O)NCCCCCC(=O)N2CCN(C(=O)c3cc(Cc4n[nH]c(=O)c5ccccc45)ccc3F)CC2)c(F)c1` [Compound 1.1, 4-(3-(4-cyano-3-(trifluoromethyl)phenyl)-5,5-dimethyl-4-oxo-2-thioxoimidazolidin-1-yl)-2-fluoro-N-(6-(4-(2-fluoro-5-((4-oxo-3,4-dihydrophthalazin-1-yl)methyl)benzoyl)piperazin-1-yl)-6-oxohexyl)benzamide], in assay [2], the IC50 is 2 nM.

For `C[C@]12CCC(=O)C[C@@H]1CC[C@@H]1[C@@H]2CC[C@]2(C)[C@@H](OCCCCCC(=O)N3CCN(C(=O)c4cc(Cc5n[nH]c(=O)c6ccccc56)ccc4F)CC3)CC[C@@H]12` [Compound 1.2, 4-(3-(4-(6-(((5S,8R,9S,10S,13S,14S,17S)-10,13-dimethyl-3-oxohexadecahydro-1H-cyclopenta[a]phenanthren-17-yl)oxy)hexanoyl)piperazine-1-carbonyl)-4-fluorobenzyl)phthalazin-1(2H)-one], the Ki in assay [1] amounted to 1.31 nM. Further, the IC50 in assay [2] (setting [3]) worked out at 3 nM.

`CC1(C)C(=O)N(c2ccc(C#N)c(C(F)(F)F)c2)C(=S)N1c1ccc(C(=O)NCCCCCCNCc2ccc(-c3[nH]c4cc(F)cc5c4c3CCNC5=O)cc2)c(F)c1` [Compound 1.5, 4-(3-(4-cyano-3-(trifluoromethyl)phenyl)-5,5-dimethyl-4-oxo-2-thioxoimidazolidin-1-yl)-2-fluoro-N-(6-((4-(8-fluoro-1-oxo-2,3,4,6-tetrahydro-1H-azepino[5,4,3-cd]indol-5-yl)benzyl)amino)hexyl)benzamide] showed a Ki in assay [1] of 291 nM. In addition, the IC50 in assay [2] worked out at 23 nM.

For `C[C@](O)(CS(=O)(=O)c1ccc(NCCCCCC(=O)N2CCN(C(=O)c3cc(Cc4n[nH]c(=O)c5ccccc45)ccc3F)CC2)cc1)C(=O)Nc1ccc(C#N)c(C(F)(F)F)c1` [Compound 1.68, (R)-N-(4-cyano-3-(trifluoromethyl)phenyl)-3-(4-(6-(4-(2-fluoro-5-((4-oxo-3,4-dihydrophthalazin-1-yl)methyl)benzoyl)piperazin-1-yl)-6-oxohexylamino)phenylsulfonyl)-2-hydroxy-2-methylpropanamide], the Ki in assay [1] stood at 907 nM. Moreover, the IC50 in assay [2] is 0.3 nM.

As for `C[C@](O)(COc1ccc(NCCCCCC(=O)N2CCN(C(=O)c3cc(Cc4n[nH]c(=O)c5ccccc45)ccc3F)CC2)cc1)C(=O)Nc1ccc(C#N)c(C(F)(F)F)c1` [Compound 1.83, (S)-N-(4-cyano-3-(trifluoromethyl)phenyl)-3-(4-(6-(4-(2-fluoro-5-((4-oxo-3,4-dihydrophthalazin-1-yl)methyl)benzoyl)piperazin-1-yl)-6-oxohexylamino)phenoxy)-2-hydroxy-2-methylpropanamide], affinity in assay [1] was put at a Ki of 139 nM. Moreover, in assay [2] (setting [3]), the IC50 was 0.7 nM.

For `C[C@](O)(CS(=O)(=O)c1ccc(NCC(=O)N2CCN(C(=O)c3cc(Cc4n[nH]c(=O)c5ccccc45)ccc3F)CC2)cc1)C(=O)Nc1ccc(C#N)c(C(F)(F)F)c1` [Compound 1.98, (R)-N-(4-cyano-3-(trifluoromethyl)phenyl)-3-(4-(2-(4-(2-fluoro-5-((4-oxo-3,4-dihydrophthalazin-1-yl)methyl)benzoyl)piperazin-1-yl)-2-oxoethylamino)phenylsulfonyl)-2-hydroxy-2-methylpropanamide], the affinity in assay [1], expressed as Ki, was 181 nM. Besides, the IC50 in assay [2] came to 0.2 nM.

Take `CN(CCCCCC(=O)N1CCN(C(=O)c2cc(Cc3n[nH]c(=O)c4ccccc34)ccc2F)CC1)CCOc1ccc(C(=O)c2c(-c3ccc(O)cc3)sc3cc(O)ccc23)cc1` [Compound 2.4, 4-(4-fluoro-3-(4-(6-((2-(4-(6-hydroxy-2-(4-hydroxyphenyl)benzo[b]thiophene-3-carbonyl)phenoxy)ethyl)(methyl)amino)hexanoyl)piperazine-1-carbonyl)benzyl)phthalazin-1(2H)-one]: the IC50 in assay [2] (setting [3]) amounted to 4 nM.

With `O=C(c1ccc(OCCN2CCN(C(=O)c3cc(Cc4n[nH]c(=O)c5ccccc45)ccc3F)CC2)cc1)c1c(-c2ccc(O)cc2)sc2cc(O)ccc12` [Compound 2.13, 4-(4-fluoro-3-(4-(2-(4-(6-hydroxy-2-(4-hydroxyphenyl)benzo[b]thiophene-3-carbonyl)phenoxy)ethyl)piperazine-1-carbonyl)benzyl)phthalazin-1(2H)-one], the IC50 in assay [2] (setting [3]) turned out to be 3.3 nM.

Turning to `CCC(=C(c1ccc(O)cc1)c1ccc(OCCN2CCN(C(=O)c3cc(Cc4n[nH]c(=O)c5ccccc45)ccc3F)CC2)cc1)c1ccccc1` [Compound 2.14, 4-(4-fluoro-3-(4-(2-(4-(1-(4-hydroxyphenyl)-2-phenylbut-1-enyl)phenoxy)ethyl)piperazine-1-carbonyl)benzyl)pthalazin-1(2H)-one], in assay [2] (setting [3]), the IC50 worked out at 274 nM.

(Values after patent publication US12398121B2 (Nuvation Bio Inc., priority 2018, dated 2025).)
